Data on 16 molecules can be found in US11701353B2, “Methods, compositions, and uses of novel FYN kinase inhibitors” (Pathways Neuro Pharma, Inc., priority 2015, dated 2023).

The IC50 is the midpoint of a concentration-inhibition curve.

In assay [1] the target is full-length recombinant human FYN A (Homo sapiens (Human), UniProt P06241). Put plainly: ADP-Glo Kinase Assay, FYN kinase inhibition (primary and secondary screen). The format is biochemical. The source says: The chemical library was comprised of the SoftFocus ATP-competitive hinge binding compounds described by Harris, C. J., Hill, R. D., Sheppard, D. W., et al., The Design and Application of Target-Focused Compound Libraries. Combinatorial Chemistry and High Throughput Screening 14:521-31 (2011). The specific pharmacore chemistries included SFK52 comprising 6-[R2]-3-[R1]imidazo[1,2-b] pyridazine compounds, SFK33 comprising N-(3-[R2] imidazo [1,2-b] pyridazin-6-yl) [R1] amine compounds, SFK49 comprising N-(5-[R2] imidazo [2,1-b][1,3,4] thiadiazol-2-yl)[R1]-amine compounds, SFK 40 comprising 5-[R2]-3-[R1] pyridin-2-amine compounds, SFK43 comprising 6-[R2]-3-[R1]imidazo[1,2-a] pyrazine compounds, and SFK63. The chemical structures of the initial 600 potential kinase inhibitors are presented in Table 3, with those chosen for additional analysis presented in Table 4. Comparison of the compounds presented in Table 1 and those of Tables 2, 3 and 4, illustrate the novelty of the chemical structures claimed herein.
full-length recombinant human FYN A, sequence (P06241 whole entry): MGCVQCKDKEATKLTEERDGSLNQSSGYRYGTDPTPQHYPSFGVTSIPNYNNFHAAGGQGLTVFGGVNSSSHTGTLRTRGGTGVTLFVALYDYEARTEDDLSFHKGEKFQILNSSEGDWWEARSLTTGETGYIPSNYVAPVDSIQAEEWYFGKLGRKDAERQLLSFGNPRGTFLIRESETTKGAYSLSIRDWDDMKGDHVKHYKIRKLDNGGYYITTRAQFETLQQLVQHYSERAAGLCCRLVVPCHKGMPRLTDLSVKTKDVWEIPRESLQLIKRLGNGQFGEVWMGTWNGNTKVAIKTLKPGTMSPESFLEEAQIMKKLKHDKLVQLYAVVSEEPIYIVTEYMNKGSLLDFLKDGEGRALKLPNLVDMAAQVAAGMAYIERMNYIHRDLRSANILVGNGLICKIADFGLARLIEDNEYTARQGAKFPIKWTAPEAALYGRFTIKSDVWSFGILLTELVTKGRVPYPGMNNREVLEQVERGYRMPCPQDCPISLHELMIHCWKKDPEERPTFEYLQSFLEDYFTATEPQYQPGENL
FYN kinase (10 micrograms) was from the FYN A Kinase Enzyme System (V3571, Promega UK Ltd.), a full-length recombinant human FYN A containing an N-terminal GST tag of about 85 kDa, expressed by bacullovirus in […] insect cells, supplied at a concentration of 0.1 microgram/microliter in 5× reaction buffer. The FYN substrate, a 12 amino acid peptide of the sequence […], containing a single tyrosine phosphorylation site, was custom synthesized (Peptide Synthetics, Peptide Protein Research, Fareham, UK) and supplied as a 4 mg/ml aqueous solution. All other reagents were obtained from Sigma (Sigma-Aldrich, Gillingham, Dorset, UK), with the exception of UltraPure ATP (V9102, Promega UK Ltd.) and the ATP-competitive broad spectrum protein kinase inhibitor staurosporine (569397, Merck Millipore, Watford, Hertfordshire, UK), or as otherwise indicated.
The assay procedure determines the IC50 of each potential FYN kinase inhibitor by measuring the enzyme catalyzed ATP-dependent phosphorylation of the FYN substrate peptide. The ADP-Glo™ Kinase Assay is specifically designed to quantify kinase activity by measuring the ADP produced in the reaction The reaction buffer comprises 40 mM Tris·HCl (pH 7.5), 20 mM MgCl2, 0.1 mg/ml BSA and 5 microM DTT. Individual compounds within the chemical library were dissolved in DMSO at known concentrations. Briefly, 2.5 microliters of reaction buffer containing 3 picograms of FYN kinase and serial dilutions of each potential FYN kinase inhibitor (9 3-fold dilutions of a 10 micromolar top sample) are placed into each well of a 384 well microtiter plate and incubated at room temperature for 30 minutes. An additional 2.5 microliters of reaction buffer containing 100 picograms of the FYN substrate and 12.5 picomoles of ATP are then added to each well and the reaction carried out for 90 minutes at room temperature. The reactions are terminated by addition of 5 microliters of the ADP-Glo™ Reagent component of the ADP-Glo™ Kinase Assay kit to each well. The ADP-Glo™ Reagent comprises an ATP-dependent adenylate cyclase, an inorganic pyrophosphatase and an excess of staurosporine. The adenylate cyclase converts the remaining ATP to cAMP and pyrophospahte, the pyrophosphatase converts the pyrophosphate to phosphate and the staurosporine inhibits the activity of the FYN kinase, the net effect is to remove all residual ATP while preserving the ADP produced by FYN kinase. The terminated reactions are incubated for 40 minutes at room temperature, prior to addition of the Kinase Detection Reagent component of the ADP-Glo™ Kinase Assay kit to each well. The Kinase Detection Reagent comprises pyruvate kinase, phosphoenol pyruvate (PEP), luciferin and luciferase. The pyruvate kinase converts PEP to pyruvate and in the process generates ATP from the residual ADP present in the terminated reaction. […]
For orientation: In ADP-Glo the light output rises with the ADP produced.

Another assay has as its target Fyn (Mus musculus (Mouse), UniProt P39688). As to conditions: cited from earlier work.
Where [2] appears, read: primary screen, initial compounds.
The mark [3] stands for this setting: secondary screen, candidate compounds re-synthesized and expanded.

Fyn, sequence (P39688 whole entry): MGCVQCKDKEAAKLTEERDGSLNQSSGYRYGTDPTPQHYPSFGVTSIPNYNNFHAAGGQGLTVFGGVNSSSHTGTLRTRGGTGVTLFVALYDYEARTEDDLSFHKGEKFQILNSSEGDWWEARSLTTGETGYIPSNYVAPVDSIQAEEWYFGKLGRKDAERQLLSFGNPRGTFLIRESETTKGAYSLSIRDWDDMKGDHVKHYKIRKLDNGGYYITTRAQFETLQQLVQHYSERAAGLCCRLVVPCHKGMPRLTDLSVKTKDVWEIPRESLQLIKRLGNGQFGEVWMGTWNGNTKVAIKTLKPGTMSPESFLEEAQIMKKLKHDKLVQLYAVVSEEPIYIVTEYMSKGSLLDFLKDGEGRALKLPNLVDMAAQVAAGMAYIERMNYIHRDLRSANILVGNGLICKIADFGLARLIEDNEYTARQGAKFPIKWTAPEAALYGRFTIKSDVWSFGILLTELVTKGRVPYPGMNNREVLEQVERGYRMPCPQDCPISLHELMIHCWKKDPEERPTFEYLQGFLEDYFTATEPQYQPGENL

In the case of `O=CNc1cc(-c2ccc(C(=O)N3CCOCC3)cc2)cn2c(-c3ccc(F)cc3)cnc12` [788_0339_0337, N-[3-(4-fluorophenyl)-6-[4-(morpholine-4-carbonyl)phenyl]imidazo[1,2-a]pyridin-8-yl]formamide], the IC50 in assay [1] (setting [2]) turned out to be 3590 nM.

Turning to `CC(=O)c1cccc(-c2cnc3ccc(NCc4ccco4)nn23)c1` [229_0144_4145, 1-[3-[6-(2-furylmethyl-amino)imidazo[1,2-b]pyridazin-3-yl]phenyl] ethanone], the IC50 in assay [1] (setting [2]) came to 997 nM.

Regarding `CC(=O)Nc1cccc(-c2cncc(NCc3ccco3)n2)c1` [035_0144_0081, N-[3-[6-(2-furylmethyl-amino)pyrazin-2-yl]phenyl] acetamide], the IC50 in assay [1] (setting [2]) was 11200 nM.

Turning to `NC(=O)c1cccc(-c2cnc3sc(NCC4CC4)nn23)c1` [699_4051_0347, 3-[2-(cyclopropyl-methyl-amino)imidazo [2,1-b][1,3,4]thia-diazol-5-yl]benzamide], the IC50 in assay [1] (setting [2]) stood at 1940 nM.

Consider `OCc1ccc(-c2cnc3ccc(NCc4ccco4)nn23)cc1` [229_0144_0285, [4-[6-(2-furylmethyl-amino)imidazo[1,2-b]pyridazin-3-yl]phenyl] methanol], for which, in assay [1] (setting [2]), the IC50 came to 2200 nM.

As to `Cc1ccccc1CNc1nn2c(-c3cccc(C(=O)N(C)C)c3)cnc2s1` [699_8074_0349, N,N-dimethyl-3-[2-(o-tolylmethyl-amino)imidazo[2,1-b][1,3,4]thia-diazol-5-yl]benzamide], the IC50 in assay [1] (setting [2]) was found to be 3730 nM.

Turning to `COc1ccc(-c2cnc3ccc(Cc4ccccc4)nn23)cc1OC` [828_0079_6001, 6-benzyl-3-(3,4-dimethoxyphen-yl)imidazo[1,2-b]pyridazine], the IC50 in assay [1] (setting [2]) was 974 nM.

On to `COc1cc(-c2cnc3ccc(NCc4cccs4)nn23)ccc1O` [BF000145954, 2-methoxy-4-[6-(2-thienylmeth-ylamino)imi-dazo[1,2-b]pyridazin-3-yl]phenol], for which the IC50 in assay [1] (setting [3]) came out at 166 nM.

Regarding `CN(C)C(=O)c1cccc(-c2cnc3sc(NCC4CC4)nn23)c1` [BF000714798, 3-[2-(cyclopropyl-methylamino)imidazo[2,1-b][1,3,4]thia-diazol-5-yl]-N,N-dimethyl-benzamide], the IC50 in assay [1] (setting [3]) is 884 nM.

Take `OCc1cccc(-c2cnc3ccc(NCc4ccco4)nn23)c1` [229_0144_0291, [3-[6-(2-furylmethyl-amino)imidazo[1,2-b]pyridazin-3-yl]phenyl] methanol]: the IC50 in assay [1] (setting [2]) was 3860 nM.

As for `CN(C)S(=O)(=O)c1ccc2c(c1)/C(=C/c1cc3c([nH]1)CCCC3)C(=O)N2` [SU6656], on Fyn (Fyn knockout strains), the energy utilization result was “no increase” and the lipid utilization entry was “no increase”. In addition, the fat mass entry at Fyn (treated mice relative to untreated control mice) was “significantly reduced”.

In the case of `CN(C)C(=O)c1cccc(-c2cnc3sc(NCc4ccc5c(c4)OCO5)nn23)c1` [BF000717214, 3-[2-(1,3-benzodioxol-5-ylmethyl-amino)imi-dazo[2,1-b][1,3,4]thia-diazol-5-yl]-N,N-dimethyl-benzamide], the IC50 in assay [1] (setting [3]) stood at 1930 nM.

Regarding `c1csc(-c2cnc3ccc(-c4ccncc4)nn23)c1` [828_4147_0069, 6-(4-pyridyl)-3-(2-thienyl)imidazo [1,2-b]pyridazine], the IC50 in assay [1] (setting [2]) came out at 497 nM.

Consider `COc1cc(-c2cnc3ccc(NCc4ccccn4)nn23)ccc1O` [BF000817095, 2-methoxy-4-[6-(2-pyridylmeth-ylamino)imi-dazo[1,2-b]pyridazin-3-yl]phenol], for which the 50% inhibitory concentration (IC50) in assay [1] (setting [3]) is 233 nM.

Regarding `Oc1cccc(-c2cncc(NCc3ccoc3)c2)c1` [081_0284_2069, 3-[5-(3-furylmethyl-amino)-3-pyridyl]phenol], the IC50 in assay [1] (setting [2]) turned out to be 10900 nM.

For the molecule `NC(=O)c1ccc(-c2cnc3ccc(Cc4ccc(F)cc4)nn23)cc1` [828_0346_6370, 4-[6-[(4-fluorophenyl)methyl]imidazo [1,2-b]pyridazin-3-yl]benzamide], the IC50 in assay [1] (setting [2]) worked out at 1300 nM.
